Experimental data as given in the supplement of paper PMC10307832.

Key:
Assay in all cases: relative viability (nuclei count vs DMSO), 5 days (fraction); higher = more cells survive
Dabrafenib + Lapatinib = compound: CC(C)(C)c1nc(-c2cccc(NS(=O)(=O)c3c(F)cccc3F)c2F)c(-c2ccnc(N)n2)s1 [Dabrafenib] + CS(=O)(=O)CCNCc1ccc(-c2ccc3ncnc(Nc4ccc(OCc5cccc(F)c5)c(Cl)c4)c3c2)o1 [Lapatinib] (partner 2 µM)
How it was run: (§1)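 Values are medians from duplicate plates. Each reflects relative viability, defined as the nuclei count of treated wells over that of vehicle wells. Lung cancer cell lines in 1536-well plates were pin-tool dosed one day after seeding with one drug alone or with a fixed anchor-drug dose plus five library-drug doses (not always all listed) in √10 steps, then fixed, stained and imaged at 4× after 5 days.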

Dabrafenib + Dasatinib = compound: CC(C)(C)c1nc(-c2cccc(NS(=O)(=O)c3c(F)cccc3F)c2F)c(-c2ccnc(N)n2)s1 [Dabrafenib] + Cc1nc(Nc2ncc(C(=O)Nc3c(C)cccc3Cl)s2)cc(N2CCN(CCO)CC2)n1 [Dasatinib] (partner 0.075 µM)
How it was run: as §1

VX-702 + Crizotinib = compound: NC(=O)c1ccc(N(C(N)=O)c2c(F)cccc2F)nc1-c1ccc(F)cc1F [VX-702] + C[C@@H](Oc1cc(-c2cnn(C3CCNCC3)c2)cnc1N)c1c(Cl)ccc(F)c1Cl [Crizotinib] (partner 1 µM)
How it was run: as §1

VX-702 + Olaparib = compound: NC(=O)c1ccc(N(C(N)=O)c2c(F)cccc2F)nc1-c1ccc(F)cc1F [VX-702] + O=C(c1cc(Cc2n[nH]c(=O)c3ccccc23)ccc1F)N1CCN(C(=O)C2CC2)CC1 [Olaparib] (partner 8 µM)
How it was run: as §1

NCI-H1734
relative viability (Dabrafenib + Lapatinib; first compound 0.009487 µM): 1.02 | relative viability (Dabrafenib + Lapatinib; first compound 0.03 µM): 0.629 | relative viability (Dabrafenib + Lapatinib; first compound 0.09487 µM): 0.747 | relative viability (Dabrafenib + Lapatinib; first compound 0.3 µM): 0.785 | relative viability (Dabrafenib + Dasatinib; first compound 0.009487 µM): 0.478 | relative viability (Dabrafenib + Dasatinib; first compound 0.03 µM): 0.454 | relative viability (Dabrafenib + Dasatinib; first compound 0.09487 µM): 0.313 | relative viability (Dabrafenib + Dasatinib; first compound 0.3 µM): 0.387 | relative viability (VX-702 + Crizotinib; first compound 0.02 µM): 0.593 | relative viability (VX-702 + Crizotinib; first compound 0.2 µM): 0.55 | relative viability (VX-702 + Crizotinib; first compound 0.6325 µM): 0.573 | relative viability (VX-702 + Crizotinib; first compound 2 µM): 0.71 | relative viability (VX-702 + Olaparib; first compound 0.02 µM): 0.637 | relative viability (VX-702 + Olaparib; first compound 0.2 µM): 0.547 | relative viability (VX-702 + Olaparib; first compound 0.6325 µM): 0.51 | relative viability (VX-702 + Olaparib; first compound 2 µM): 0.523

NCI-H1755
relative viability (Dabrafenib + Lapatinib; first compound 0.003 µM): 0.957 | relative viability (Dabrafenib + Lapatinib; first compound 0.009487 µM): 1.07 | relative viability (Dabrafenib + Lapatinib; first compound 0.03 µM): 0.928 | relative viability (Dabrafenib + Lapatinib; first compound 0.09487 µM): 1 | relative viability (Dabrafenib + Lapatinib; first compound 0.3 µM): 0.986 | relative viability (Dabrafenib + Dasatinib; first compound 0.003 µM): 0.419 | relative viability (Dabrafenib + Dasatinib; first compound 0.009487 µM): 0.38 | relative viability (Dabrafenib + Dasatinib; first compound 0.03 µM): 0.405 | relative viability (Dabrafenib + Dasatinib; first compound 0.09487 µM): 0.403 | relative viability (Dabrafenib + Dasatinib; first compound 0.3 µM): 0.337 | relative viability (VX-702 + Crizotinib; first compound 0.02 µM): 0.919 | relative viability (VX-702 + Crizotinib; first compound 0.2 µM): 0.784 | relative viability (VX-702 + Crizotinib; first compound 0.6325 µM): 0.894 | relative viability (VX-702 + Crizotinib; first compound 2 µM): 0.972 | relative viability (VX-702 + Olaparib; first compound 0.02 µM): 0.911 | relative viability (VX-702 + Olaparib; first compound 0.2 µM): 0.897 | relative viability (VX-702 + Olaparib; first compound 0.6325 µM): 0.799 | relative viability (VX-702 + Olaparib; first compound 2 µM): 0.876

NCI-H1792
relative viability (Dabrafenib + Lapatinib; first compound 0.009487 µM): 0.881 | relative viability (Dabrafenib + Lapatinib; first compound 0.03 µM): 0.813 | relative viability (Dabrafenib + Lapatinib; first compound 0.09487 µM): 0.792 | relative viability (Dabrafenib + Lapatinib; first compound 0.3 µM): 0.912 | relative viability (Dabrafenib + Dasatinib; first compound 0.009487 µM): 0.839 | relative viability (Dabrafenib + Dasatinib; first compound 0.03 µM): 0.892 | relative viability (Dabrafenib + Dasatinib; first compound 0.09487 µM): 0.857 | relative viability (Dabrafenib + Dasatinib; first compound 0.3 µM): 0.905 | relative viability (VX-702 + Crizotinib; first compound 0.02 µM): 1 | relative viability (VX-702 + Crizotinib; first compound 0.2 µM): 0.913 | relative viability (VX-702 + Crizotinib; first compound 0.6325 µM): 0.992 | relative viability (VX-702 + Crizotinib; first compound 2 µM): 1.17 | relative viability (VX-702 + Olaparib; first compound 0.02 µM): 0.396 | relative viability (VX-702 + Olaparib; first compound 0.2 µM): 0.434 | relative viability (VX-702 + Olaparib; first compound 0.6325 µM): 0.356 | relative viability (VX-702 + Olaparib; first compound 2 µM): 0.444

NCI-H1915
relative viability (Dabrafenib + Lapatinib; first compound 0.003 µM): 1.04 | relative viability (Dabrafenib + Lapatinib; first compound 0.009487 µM): 0.985 | relative viability (Dabrafenib + Lapatinib; first compound 0.03 µM): 0.781 | relative viability (Dabrafenib + Lapatinib; first compound 0.09487 µM): 0.654 | relative viability (Dabrafenib + Lapatinib; first compound 0.3 µM): 0.673 | relative viability (Dabrafenib + Dasatinib; first compound 0.003 µM): 0.316 | relative viability (Dabrafenib + Dasatinib; first compound 0.009487 µM): 0.318 | relative viability (Dabrafenib + Dasatinib; first compound 0.03 µM): 0.386 | relative viability (Dabrafenib + Dasatinib; first compound 0.09487 µM): 0.296 | relative viability (Dabrafenib + Dasatinib; first compound 0.3 µM): 0.345 | relative viability (VX-702 + Crizotinib; first compound 0.02 µM): 0.868 | relative viability (VX-702 + Crizotinib; first compound 0.2 µM): 0.845 | relative viability (VX-702 + Crizotinib; first compound 0.6325 µM): 0.913 | relative viability (VX-702 + Crizotinib; first compound 2 µM): 0.944 | relative viability (VX-702 + Olaparib; first compound 0.02 µM): 0.28 | relative viability (VX-702 + Olaparib; first compound 0.2 µM): 0.257 | relative viability (VX-702 + Olaparib; first compound 0.6325 µM): 0.238 | relative viability (VX-702 + Olaparib; first compound 2 µM): 0.241

NCI-H1944
relative viability (Dabrafenib + Lapatinib; first compound 0.003 µM): 0.835 | relative viability (Dabrafenib + Lapatinib; first compound 0.009487 µM): 0.924 | relative viability (Dabrafenib + Lapatinib; first compound 0.03 µM): 0.613 | relative viability (Dabrafenib + Lapatinib; first compound 0.09487 µM): 0.898 | relative viability (Dabrafenib + Lapatinib; first compound 0.3 µM): 0.788 | relative viability (Dabrafenib + Dasatinib; first compound 0.003 µM): 0.197 | relative viability (Dabrafenib + Dasatinib; first compound 0.009487 µM): 0.24 | relative viability (Dabrafenib + Dasatinib; first compound 0.03 µM): 0.236 | relative viability (Dabrafenib + Dasatinib; first compound 0.09487 µM): 0.244 | relative viability (Dabrafenib + Dasatinib; first compound 0.3 µM): 0.178 | relative viability (VX-702 + Crizotinib; first compound 0.02 µM): 0.963 | relative viability (VX-702 + Crizotinib; first compound 0.2 µM): 1.01 | relative viability (VX-702 + Crizotinib; first compound 0.6325 µM): 0.985 | relative viability (VX-702 + Crizotinib; first compound 2 µM): 0.829 | relative viability (VX-702 + Olaparib; first compound 0.02 µM): 0.413 | relative viability (VX-702 + Olaparib; first compound 0.2 µM): 0.435 | relative viability (VX-702 + Olaparib; first compound 0.6325 µM): 0.432 | relative viability (VX-702 + Olaparib; first compound 2 µM): 0.403

NCI-H1975
relative viability (Dabrafenib + Lapatinib; first compound 0.003 µM): 0.914 | relative viability (Dabrafenib + Lapatinib; first compound 0.009487 µM): 0.858 | relative viability (Dabrafenib + Lapatinib; first compound 0.03 µM): 0.881 | relative viability (Dabrafenib + Lapatinib; first compound 0.09487 µM): 0.84 | relative viability (Dabrafenib + Lapatinib; first compound 0.3 µM): 0.786 | relative viability (Dabrafenib + Dasatinib; first compound 0.003 µM): 0.372 | relative viability (Dabrafenib + Dasatinib; first compound 0.009487 µM): 0.345 | relative viability (Dabrafenib + Dasatinib; first compound 0.03 µM): 0.363 | relative viability (Dabrafenib + Dasatinib; first compound 0.09487 µM): 0.344 | relative viability (Dabrafenib + Dasatinib; first compound 0.3 µM): 0.392 | relative viability (VX-702 + Crizotinib; first compound 0.02 µM): 0.919 | relative viability (VX-702 + Crizotinib; first compound 0.2 µM): 0.982 | relative viability (VX-702 + Crizotinib; first compound 0.6325 µM): 0.889 | relative viability (VX-702 + Crizotinib; first compound 2 µM): 1.14 | relative viability (VX-702 + Olaparib; first compound 0.02 µM): 0.792 | relative viability (VX-702 + Olaparib; first compound 0.2 µM): 0.746 | relative viability (VX-702 + Olaparib; first compound 0.6325 µM): 0.809 | relative viability (VX-702 + Olaparib; first compound 2 µM): 1.1

NCI-H1993
relative viability (Dabrafenib + Lapatinib; first compound 0.003 µM): 0.696 | relative viability (Dabrafenib + Lapatinib; first compound 0.009487 µM): 0.729 | relative viability (Dabrafenib + Lapatinib; first compound 0.03 µM): 0.754 | relative viability (Dabrafenib + Lapatinib; first compound 0.09487 µM): 0.713 | relative viability (Dabrafenib + Lapatinib; first compound 0.3 µM): 0.882 | relative viability (Dabrafenib + Dasatinib; first compound 0.003 µM): 0.627 | relative viability (Dabrafenib + Dasatinib; first compound 0.009487 µM): 0.665 | relative viability (Dabrafenib + Dasatinib; first compound 0.03 µM): 0.607 | relative viability (Dabrafenib + Dasatinib; first compound 0.09487 µM): 0.845 | relative viability (Dabrafenib + Dasatinib; first compound 0.3 µM): 0.856 | relative viability (VX-702 + Crizotinib; first compound 0.02 µM): 0.882 | relative viability (VX-702 + Crizotinib; first compound 0.2 µM): 0.717 | relative viability (VX-702 + Crizotinib; first compound 0.6325 µM): 0.852 | relative viability (VX-702 + Crizotinib; first compound 2 µM): 0.792 | relative viability (VX-702 + Olaparib; first compound 0.02 µM): 0.5 | relative viability (VX-702 + Olaparib; first compound 0.2 µM): 1.06 | relative viability (VX-702 + Olaparib; first compound 0.6325 µM): 1.06 | relative viability (VX-702 + Olaparib; first compound 2 µM): 1.05

NCI-H2009
relative viability (Dabrafenib + Lapatinib; first compound 0.003 µM): 0.311 | relative viability (Dabrafenib + Lapatinib; first compound 0.009487 µM): 1 | relative viability (Dabrafenib + Lapatinib; first compound 0.03 µM): 0.872 | relative viability (Dabrafenib + Lapatinib; first compound 0.09487 µM): 0.606 | relative viability (Dabrafenib + Lapatinib; first compound 0.3 µM): 0.484 | relative viability (Dabrafenib + Dasatinib; first compound 0.003 µM): 0.228 | relative viability (Dabrafenib + Dasatinib; first compound 0.009487 µM): 0.308 | relative viability (Dabrafenib + Dasatinib; first compound 0.03 µM): 0.268 | relative viability (Dabrafenib + Dasatinib; first compound 0.09487 µM): 0.209 | relative viability (Dabrafenib + Dasatinib; first compound 0.3 µM): 0.224 | relative viability (VX-702 + Crizotinib; first compound 0.02 µM): 1.11 | relative viability (VX-702 + Crizotinib; first compound 0.2 µM): 1.13 | relative viability (VX-702 + Crizotinib; first compound 0.6325 µM): 1.18 | relative viability (VX-702 + Crizotinib; first compound 2 µM): 1.25 | relative viability (VX-702 + Olaparib; first compound 0.02 µM): 0.751 | relative viability (VX-702 + Olaparib; first compound 0.2 µM): 0.705 | relative viability (VX-702 + Olaparib; first compound 0.6325 µM): 0.739 | relative viability (VX-702 + Olaparib; first compound 2 µM): 0.842

NCI-H2023
relative viability (Dabrafenib + Lapatinib; first compound 0.003 µM): 0.617 | relative viability (Dabrafenib + Lapatinib; first compound 0.009487 µM): 1.09 | relative viability (Dabrafenib + Lapatinib; first compound 0.03 µM): 0.979 | relative viability (Dabrafenib + Lapatinib; first compound 0.09487 µM): 0.79 | relative viability (Dabrafenib + Lapatinib; first compound 0.3 µM): 0.961 | relative viability (Dabrafenib + Dasatinib; first compound 0.003 µM): 0.559 | relative viability (Dabrafenib + Dasatinib; first compound 0.009487 µM): 0.589 | relative viability (Dabrafenib + Dasatinib; first compound 0.03 µM): 0.586 | relative viability (Dabrafenib + Dasatinib; first compound 0.09487 µM): 0.516 | relative viability (Dabrafenib + Dasatinib; first compound 0.3 µM): 0.673 | relative viability (VX-702 + Crizotinib; first compound 0.02 µM): 0.586 | relative viability (VX-702 + Crizotinib; first compound 0.2 µM): 0.563 | relative viability (VX-702 + Crizotinib; first compound 0.6325 µM): 0.555 | relative viability (VX-702 + Crizotinib; first compound 2 µM): 0.698 | relative viability (VX-702 + Olaparib; first compound 0.02 µM): 0.459 | relative viability (VX-702 + Olaparib; first compound 0.2 µM): 0.461 | relative viability (VX-702 + Olaparib; first compound 0.6325 µM): 0.552 | relative viability (VX-702 + Olaparib; first compound 2 µM): 0.637
